Reference: US9456555B2, “Agent for treating grape vine wood” (Financiere Mercier, priority 2011, dated 2016)

Experiments:
[1] = test system: Botryosphaeria obtusa, Botryosphaeria dothidea, Eutypa lata, Fomitiporia punctata, Phaeacremonium aleophilum, Phaeomonelia chlamydospora, Phaeoacremonium spp. …; experiment: Comparative in vivo test of wood disinfection, PCR analysis for presence of 8 fungi; set-up: species or system grapevine; conditions: immersion 12 h
Method: The in vivo test consisted of evaluating a set of 1025 plants derived from 4 rootstocks and 5 different varieties (to limit the varietal effect). Samples of the seedlings were taken before and after treatment. The treatment consisted of immersing the wood in the various solutions under test for 12 h, i.e. the usual rehydration time of the wood in the nursery (overnight). The samples of wood before and after treatment were analyzed, by extracting the total DNA of the wood samples taken, and evaluation by molecular diagnostics (PCR analysis) for the presence or absence of these 8 fungi: Botryosphaeria obtusa, Botryosphaeria dothidea, Eutypa lata, Fomitiporia punctata, Phaeacremonium aleophilum, Phaeomonelia chlamydospora, Phaeoacremonium spp. and Cylindrocarpon destructans. […] If nothing is indicated, it is because it was never found.

grapevine seedlings = experiment: Percentage of recovery (take) after planting; assay type: in vivo
From the text: The result of recovery (take) after planting (growth of the plants) is very important, as the treatment must not be injurious for the grapevine seedlings.

[2] = test system: 8 fungi referenced as pathogens and associated with various diseases of the wood; experiment: Comparative in vitro test on PDA medium, mycelium growth; assay type: cell-based; conditions: 10 ml solution left for 12 h on PDA; observed several weeks, about 25° C.; neutral anolyte 100%
Method: That is why an in vitro test was carried out, in order to compare the effect of water, hydrogen peroxide, desogerm and the neutral anolyte (100%) on 8 fungi referenced as pathogens and associated with various diseases of the wood. Strains of the 8 fungi mentioned above were deposited on culture medium with low discrimination (PDA—Potato Dextrose Agar—Medium). Then 10 ml of each solution was added to Petri dishes with the inoculated strains of fungi, and left for 12 h.

In the case of `OO` [H2O2, hydrogen peroxide], the “fungus found at least once among the individuals evaluated (PCR)” value (“fungus found” below) ([1]; Merlot.N (182), with THW (50° C.-45 min)) is reported as “B.obt”, the “fungus found” value ([1]; R110 (151), with THW (50° C.-45 min)) is reported as “B.obt” and the “fungus found” value ([1]; SO4(203), with THW (50° C.-45 min)) is reported as “B.obt”. The “fungus found” value ([1]; SO4(203), without THW) was “E.lata”, the “Percentage of recovery of the treated seedlings” value (grapevine seedlings; 8 days after planting) was 59% and the “Percentage of recovery of the treated seedlings” value (grapevine seedlings; 20 days after planting) was 94.8%. The “alteration of the wood” value (grapevine seedlings; contact with the cuttings during the rehydration phase) was “alters the wood” and the “growth of the fungi (radius of mycelium)” value [2] was “a certain efficacy”.
